Reference: ChEMBL document CHEMBL1130903, “Preparation of difluoro analogs of CCGs and their pharmacological evaluations” (Bioorg Med Chem Lett, 1998)

Columns and labels:
[1] = target: T1, Glutamate NMDA receptor (Rattus norvegicus) (UniProt P35439+Q00959+Q00960+Q00961+Q62645+Q8VHN2+Q9R1M7); experiment: Depolarizing activity against NMDA receptor in isolated spinal cord of newborn rat.; type: protein-complex assay
[2] = target: T1, Glutamate NMDA receptor (Rattus norvegicus); experiment: (§1) Relative activity in depolarization to its corresponding CCG(CCG=1) isomer; type: protein-complex assay
[3] = target: Metabotropic glutamate receptor 1 (Rattus norvegicus) (UniProt P23385); experiment: as §1
Sequence of Metabotropic glutamate receptor 1 (Rattus norvegicus) (P23385 19-1199 limits assumed): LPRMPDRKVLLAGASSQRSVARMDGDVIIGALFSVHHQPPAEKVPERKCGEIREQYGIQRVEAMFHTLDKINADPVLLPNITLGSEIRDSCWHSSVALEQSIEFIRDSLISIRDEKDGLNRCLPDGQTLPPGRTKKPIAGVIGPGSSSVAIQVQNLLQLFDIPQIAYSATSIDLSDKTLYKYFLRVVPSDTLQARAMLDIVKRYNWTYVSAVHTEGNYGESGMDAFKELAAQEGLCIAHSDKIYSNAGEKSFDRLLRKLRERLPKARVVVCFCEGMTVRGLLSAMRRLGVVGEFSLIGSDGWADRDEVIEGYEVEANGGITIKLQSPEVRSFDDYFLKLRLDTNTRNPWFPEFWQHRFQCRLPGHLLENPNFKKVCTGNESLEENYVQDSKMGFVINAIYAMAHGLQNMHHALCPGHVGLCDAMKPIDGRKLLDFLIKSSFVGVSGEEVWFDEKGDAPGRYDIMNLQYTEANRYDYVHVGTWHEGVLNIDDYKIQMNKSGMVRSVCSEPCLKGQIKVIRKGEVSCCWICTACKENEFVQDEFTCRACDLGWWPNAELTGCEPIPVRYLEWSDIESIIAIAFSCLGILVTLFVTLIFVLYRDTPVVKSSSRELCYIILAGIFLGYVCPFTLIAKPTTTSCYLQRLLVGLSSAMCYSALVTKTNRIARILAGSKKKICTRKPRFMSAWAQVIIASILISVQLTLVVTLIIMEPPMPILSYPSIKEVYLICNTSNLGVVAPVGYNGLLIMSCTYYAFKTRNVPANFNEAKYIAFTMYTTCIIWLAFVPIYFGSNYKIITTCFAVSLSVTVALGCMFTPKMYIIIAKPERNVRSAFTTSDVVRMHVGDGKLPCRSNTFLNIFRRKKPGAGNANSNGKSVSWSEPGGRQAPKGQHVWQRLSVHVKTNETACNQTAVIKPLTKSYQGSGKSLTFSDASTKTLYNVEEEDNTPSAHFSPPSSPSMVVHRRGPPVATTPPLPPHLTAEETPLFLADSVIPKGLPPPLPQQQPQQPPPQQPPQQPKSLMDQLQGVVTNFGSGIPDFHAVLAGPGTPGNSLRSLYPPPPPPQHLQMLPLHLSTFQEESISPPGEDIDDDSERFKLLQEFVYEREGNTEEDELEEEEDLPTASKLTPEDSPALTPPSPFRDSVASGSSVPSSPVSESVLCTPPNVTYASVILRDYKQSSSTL

[4] = target: Metabotropic glutamate receptor 1 (Rattus norvegicus) (UniProt P23385); experiment: Depolarizing activity against mGluR-I receptor in isolated spinal cord of newborn rat.; type: tissue-based

Structure (SMILES)	Threshold concentration [1]	Ratio of depolarizing activity [2]	Ratio of depolarizing activity [3]	Threshold concentration [4]
N[C@H](C(=O)O)[C@H]1[C@@H](C(=O)O)C1(F)F	1 µM	1.5	–	–
N[C@H](C(=O)O)[C@@H]1[C@@H](C(=O)O)C1(F)F	–	–	3	2 µM
N[C@@H](C(=O)O)[C@@H]1[C@@H](C(=O)O)C1(F)F	10 µM	0.1	–	–
NC(C(=O)O)[C@H]1[C@@H](C(=O)O)C1(F)F (single isomer, unassigned)	1000 µM	< 0.01	–	–
N[C@H](C(=O)O)[C@@H]1[C@H](C(=O)O)C1(F)F	100 µM	2	–	–

More lines, now with the values ahead:

Threshold concentration [1]	Ratio of depolarizing activity [2]	Ratio of depolarizing activity [3]	Threshold concentration [4]	Structure (SMILES)
300 µM	–	0.5	300 µM	N[C@H](C(=O)O)[C@H]1[C@H](C(=O)O)C1(F)F
30 µM	1.2	–	–	N[C@@H](C(=O)O)[C@H]1[C@H](C(=O)O)C1(F)F
1000 µM	< 0.1	–	–	NC(C(=O)O)[C@@H]1[C@H](C(=O)O)C1(F)F (single isomer, unassigned)
